# Values joined by “and” are separate entries in the source; they are usually repeats but may differ in a detail not shown here. Identical values can stand only once.
# Biological target: T1, chymotrypsin-like activity of the 20S proteasome (Homo sapiens, UniProt P20618+P28074)
# T1 construct: purified human placenta 20S proteasome; tissue Diabetes Forschungsinstitut, Düsseldorf, Germany; host or cells: human placenta
# Assay: Inhibition of the chymotrypsin-like activity of the 20S proteasome (Suc-LLVY-AMC hydrolysis)
# Type: biochemical
# Conditions: purified human placenta 20S proteasome, Suc-LLVY-AMC substrate, read-out: IC50 [μM] (results of one or two experiments)
# Excerpt: It is based on the hydrolysis of the fluorogenic peptide Suc-LLVY-AMC (Succinyl-leucine-leucine-vatine-tyrosine-7-amino-4-methyl-coumarin), which is cleaved exclusively at the Y-AMC bond by the 20S proteasome. Hydrolysis of this peptide is accompanied by an increase in fluorescence intensity (λex (excitation wavelength): 355 nm; μem (emission wavelength): 460 nm) due to release of the […] that accompanies diffusion apart of the hydrolysis product Suc-LLVY.
# 2 μl of a 1 mM solution of a test compound in DMSO (dimethylsulfoxide, 20 μM final concentration in the well) are preincubated for 60 min at room temperature in black 96-well microtiter plates together with a mixture of 1 μl purified human placenta 20S proteasome (Diabetes Forschungsinstitut, DÜsseldorf, Germany; about 100 ng proteasome, depending on the proteasome preparation) and 47 μl buffer-Ca (5 mM CaCl2, 20 mM Tris/HCl (Tris-(hydroxymethyl)-amino-methane hydrochloride) pH 8.0). 3 μl of a 2.67 mM solution of Suc-LLVY-AMC (Bachem, Switzerland) in DMSO (80 μM final concentration in the well) and 47 μl buffer-Ca are mixed and added. The resulting mixture is incubated for 3-24 h at 37° C. If desired, proteolysis of the substrate can be stopped by addition of 50 μl stop solution (100 mM monochloroacetic acid, 130 mM NaOH, 100 mM acetic acid, pH=4.3). The fluorescence is monitored with a FLUOROSKAN ASCENT™ microtiter plate reader.
# For each measurement series two control experiments are carried out: • 1.) 0% value: 2 μl DMSO are used in the above described assay instead of 2 μl of a 1 mM solution of a test compound in DMSO and 48 μl buffer-Ca instead of a mixture of 47 μl buffer-Ca and 1 μl purified proteasome. • 2.) 100% value: in the above described assay 2 μl DMSO are used instead of 2 μl of a 1 mM solution of the test compound in DMSO. Calculation [formula]
# The IC50 value is defined as that concentration of a compound at which the remaining activity is 50% compared to the […].
row,IC50,Compound
1,0.0018 µM and 0.0019 µM,"COc1ccc(C[C@H](NC(=O)CCc2ccccc2)C(=O)N[C@H](C(=O)N[C@@H](CC(C)C)B(O)O)C(C)C)c(OC)c1OC [Example 6, (R)-3-Methyl-1-{(S)-3-methyl-2-[(S)-2-(3-phenyl-propionylamino)-3-(2,3,4-trimethoxy-phenyl)-propionylamino]-butyrylamino}-butylboronic acid]"
2,0.0017 µM,"COc1cc(C[C@H](Nc2cccc(-c3ccccn3)c2)C(=O)N[C@H](C(=O)N[C@@H](CC(C)C)B(O)O)C(C)C)cc(OC)c1OC [Example 14, (R)-3-Methyl-1-[(S)-3-methyl-2-[(S)-2-(3-pyridin-2-yl-phenylamino)-3-(3,4,5-trimethoxy-phenyl)-propionylamino]-butyrylamino)-butylboronic acid]"
3,0.0023 µM,"COc1cc(C[C@H](Nc2cccc(-c3ccccc3)c2)C(=O)N[C@H](C(=O)N[C@@H](Cc2ccccc2)B(O)O)C(C)C)cc(OC)c1OC [Example 50, (R)-1-{(S)-2-[(S)-2-(Biphenyl-3-ylamino)-3-(3,4,5-trimethoxy-phenyl)-propionylamino]-3-methyl-butyrylamino}-2-phenyl-ethylboronic acid]"
4,0.0017 µM,"COc1cc(C[C@H](Nc2cccc(-c3ccccc3)c2)C(=O)N[C@@H](C)C(=O)N[C@@H](CC(C)C)B(O)O)cc(OC)c1OC [Example 38, (R)-1-{(S)-2-[(S)-2-(Biphenyl-3-ylamino)-3-(3,4,5-trimethoxy-phenyl)-propionylamino]-propionylamino}-3-methyl-butylboronic acid]"
5,0.004 µM,"CC(C)C[C@H](NC(=O)[C@@H](NC(=O)[C@H](Cc1ccc(OCc2ccccc2)cc1)NC(=O)Cc1cccc(OCc2ccccc2)c1)C(C)C)B1O[C@@H]2C[C@@H]3C[C@@H](C3(C)C)[C@]2(C)O1 [Example 29, (S)-2-{(S)-3-(4-Benzyloxy-phenyl)-2-[2-(3-benzyloxy-phenyl)-acetylamino]-propionylamino}-3-methyl-N-[(R)-3-methyl-1-((1S,2S,6R,8S)-2,9,9-trimethyl-3,5-dioxa-4-bora-tricyclo[6.1.1.0^2,6]dec-4-yl)-butyl]-butyramide]"
6,0.0012 µM,"COc1ccc(C[C@H](Nc2cccc(-c3ccccc3)c2)C(=O)N[C@@H](C)C(=O)N[C@@H](CC(C)C)B2O[C@@H]3C[C@@H]4C[C@@H](C4(C)C)[C@]3(C)O2)cc1 [Example 41, (S)-2-(Biphenyl-3-ylamino)-3-(4-methoxy-phenyl)-N-{(S)-1-[(R)-3-methyl-1-((1S,2S,6R,8S)-2,9,9-trimethyl-3,5-dioxa-4-bora-tricyclo[6.1.1.0^2,6]dec-4-yl)-butylcarbamoyl]-ethyl}-propionamide]"
7,0.0023 µM,"COc1ccc(C[C@H](Nc2cccc(-c3ccccc3)c2)C(=O)N[C@@H](CC(C)C)C(=O)N[C@@H](CC(C)C)B(O)O)cc1 [Example 36, (R)-1-{(S)-2-[(S)-2-(Biphenyl-3-ylamino)-3-(4-methoxy-phenyl)-propionylamino]-4-methyl-pentanoylamino}-3-methyl-butylboronic acid]"
8,0.0013 µM,"COc1cc(C[C@H](Nc2cccc(C(C)C)c2)C(=O)N[C@@H](C)C(=O)N[C@@H](CC(C)C)B2O[C@@H]3C[C@@H]4C[C@@H](C4(C)C)[C@]3(C)O2)cc(OC)c1OC [Example 45, (S)-2-(3-Isopropyl-phenylamino)-N-{(S)-1-[(R)-3-methyl-1-((1S,2S,6R,8S)-2,9,9-trimethyl-3,5-dioxa-4-bora-tricyclo[6.1.1.0^2,6]dec-4-yl)-butylcarbamoyl]-ethyl}-3-(3,4,5-trimethoxy-phenyl)-propionamide]"
9,0.0028 µM and 0.0021 µM,"COc1cc(C[C@H](Nc2cccc(-c3ccccc3)c2)C(=O)N[C@H](C(=O)N[C@@H](CC(C)C)B(O)O)C(C)C)cc(OC)c1OC [Example 2, (R)-1-{(S)-2-[(S)-2-(Biphenyl-3-ylamino)-3-(3,4,5-trimethoxy-phenyl)-propionylamino]-3-methyl-butyrylamino}-3-methyl-butylboronic acid]"
10,0.0007 µM,"COc1ccc(C[C@H](NC(=O)CCc2ccccc2)C(=O)N[C@@H](C)C(=O)N[C@@H](CC(C)C)B(O)O)c(OC)c1OC [Example 48, (R)-3-Methyl-1-{(S)-2-[(S)-2-(3-phenyl-propionylamino)-3-(2,3,4-trimethoxyphenyl)-propionylamino]-propionylamino}-butylboronic acid]"
11,0.0018 µM,"COc1ccc(C[C@H](Nc2cccc(-c3ccccc3)c2)C(=O)N[C@@H](C)C(=O)N[C@@H](CC(C)C)B2O[C@@H]3C[C@@H]4C[C@@H](C4(C)C)[C@]3(C)O2)cc1OC [Example 43, (S)-2-(Biphenyl-3-ylamino)-3-(3,4-dimethoxy-phenyl)-N-{(S)-1-[(R)3-methyl-1-((1S,2S,6R,8S)-2,9,9-trimethyl-3,5-dioxa-4-bora-tricyclo[6.1.1.0^2,6]dec-4-yl)-butylcarbamoyl]-ethyl}-propionamide]"
12,0.0013 µM,"COc1cc(C[C@H](Nc2cccc(-c3ccccc3)c2)C(=O)N[C@@H](C)C(=O)N[C@@H](CC(C)C)B2O[C@@H]3C[C@@H]4C[C@@H](C4(C)C)[C@]3(C)O2)cc(OC)c1OC [Example 37, (S)-2-(Biphenyl-3-ylamino)-N-{(S)-1-[(R)-3-methyl-1-((1S,2S,6R,8S)-2,9,9-trimethyl-3,5-dioxa-4-bora-tricyclo[6.1.1.0^2,6]dec-4-yl)-butylcarbamoyl]-ethyl}-3-(3,4,5-trimethoxy-phenyl)-propionamide]"
13,0.0013 µM and 0.0006 µM,"COc1ccc(C[C@H](NC(=O)CCc2ccccc2)C(=O)N[C@H](C(=O)N[C@@H](CC(C)C)B2O[C@@H]3C[C@@H]4C[C@@H](C4(C)C)[C@]3(C)O2)C(C)C)c(OC)c1OC [Example 5, (S)-3-Methyl-N-[(R)-3-methyl-1-((1S,2S,6R,8S)-2,9,9-trimethyl-3,5-dioxa-4-bora-tricyclo[6.1.1.0^2,6]dec-4-yl)-butyl]-2-[(S)-2-(3-phenyl-propionyl-amino)-3-(2,3,4-trimethoxyphenyl)-propionylamino]-butyramide]"
14,0.0013 µM,"COc1cc(C[C@H](Nc2cccc(-c3ccccn3)c2)C(=O)N[C@H](C(=O)N[C@@H](CC(C)C)B2O[C@@H]3C[C@@H]4C[C@@H](C4(C)C)[C@]3(C)O2)C(C)C)cc(OC)c1OC [Example 13, (S)-3-Methyl-N-[(R)-3-methyl-1-((1S,2S,6R,8S)-2,9,9-trimethyl-3,5-dioxa-4-bora-tricyclo[6.1.1.0^2,6]dec-4-yl)-butyl]-2-[(S)-2-(3-pyridin-2-yl-phenylamino)-3-(3,4,5-trimethoxy-phenyl)-propionylamino]-butyramide]"
15,0.0093 µM,"CC(C)C[C@H](NC(=O)[C@@H](NC(=O)[C@H](Cc1ccc(OCc2ccccc2)cc1)Nc1cccc(-c2ccccc2)c1)C(C)C)B1O[C@@H]2C[C@@H]3C[C@@H](C3(C)C)[C@]2(C)O1 [Example 17, (S)-2-[(S)-3-(4-Benzyloxy-phenyl)-2-(biphenyl-3-ylamino)-propionylamino]-3-methyl-N-[(R)-3-methyl-1-((1S,2S,6R,8S)-2,9-trimethyl-3,5-dioxa-4-bora-tricyclo[6.1.1.0^2,6]dec-4-yl)-butyl]-butyramide]"
16,0.0017 µM and 0.0014 µM,"COc1ccc(C[C@H](NC(=O)Cc2cccc(Oc3ccccc3)c2)C(=O)N[C@H](C(=O)N[C@@H](CC(C)C)B2O[C@@H]3C[C@@H]4C[C@@H](C4(C)C)[C@]3(C)O2)C(C)C)c(OC)c1OC [Example 3, (S)-3-Methyl-N-[(R)-3-methyl-1-((1S,2S,6R,8S)-2,9,9-trimethyl-3,5-dioxa-4-bora-tricyclo[6.1.1.0^2,6]dec-4-yl)-butyl]-2-[(S)-2-[2-(3-phenoxy-phenyl)-acetylamino]-3-(2,3,4-trimethoxy-phenyl)-propionylamino]-butyramide]"
17,0.0043 µM,"COc1ccc(C[C@H](Nc2cccc(-c3ccccc3)c2)C(=O)N[C@H](C(=O)N[C@@H](Cc2ccccc2)B2O[C@@H]3C[C@@H]4C[C@@H](C4(C)C)[C@]3(C)O2)C(C)C)cc1 [Example 51, (S)-2-[(S)-2-(Biphenyl-3-ylamino)-3-(4-methoxy-phenyl)-propionylamino]-3-methyl-N-[(R)-2-phenyl-1-((1S,2S,6R,8S)-2,9,9-trimethyl-3,5-dioxa-4-bora-tricyclo[6.1.1.0^2,6]dec-4-yl)-ethyl]-butyramide]"
18,0.0008 µM,"COc1ccc(C[C@H](NC(=O)CCc2ccccc2)C(=O)N[C@@H](C)C(=O)N[C@@H](CC(C)C)B2O[C@@H]3C[C@@H]4C[C@@H](C4(C)C)[C@]3(C)O2)c(OC)c1OC [Example 47, (S)-N-{(S)-1-[(R)-3-Methyl-1-((1S,2S,6R,8S)-2,9,9-trimethyl-3,5-dioxa-4-bora-tricyclo[6.1.1.0^2,6]dec-4-yl)-butylcarbamoyl]-ethyl}-2-(3-phenyl-propionylamino)-3-(2.3.4 trimethoxy-phenyl)-propionamide]"

# From patent US6933290B2, “2-{N-(2-amino-3-(heteroaryl or aryl)propionyl)-aminoacyl}-amino}-alkylboronic acid derivatives” (Novartis AG, priority 2001, dated 2005)
